The NIST ThermoML archive (doi:10.1021/je100300s)

Assay: xn = mol fraction of the nth substance listed
Conditions: 101 kPa, Liquid

CC(O)CN (centres undefined) [1-amino-2-propanol] + O
Conditions | mass density [kg/m3] | viscosity [mPa·s]
298.15 K, x1 = 0.05 | 999.9 | 2.11
298.15 K, x1 = 0.07 | 1000.35 | 2.696
298.15 K, x1 = 0.0986 | 1002.43 | 3.902
298.15 K, x1 = 0.1993 | 1004.57 | 9.7
298.15 K, x1 = 0.3003 | 999.91 | 15.54
298.15 K, x1 = 0.3955 | 992.94 | 22.19
298.15 K, x1 = 0.4929 | 985.82 | 26.76
298.15 K, x1 = 0.5995 | 978.02 | 29.01
298.15 K, x1 = 0.7002 | 971.66 | 29.99
298.15 K, x1 = 0.8006 | 965.96 | 30.4
298.15 K, x1 = 0.8992 | 961.08 | 28.55
298.15 K, x1 = 1 | 956.51 | 26.68
303.15 K, x1 = 0.05 | 997.07 | 1.856
303.15 K, x1 = 0.07 | 998.1 | 2.282
303.15 K, x1 = 0.0986 | 999.83 | 3.248
303.15 K, x1 = 0.1993 | 1001.03 | 7.671
303.15 K, x1 = 0.3003 | 996.08 | 12.04
303.15 K, x1 = 0.3955 | 989.08 | 16.82
303.15 K, x1 = 0.4929 | 981.92 | 19.5
303.15 K, x1 = 0.5995 | 974.2 | 21.38
303.15 K, x1 = 0.7002 | 967.74 | 22.78
303.15 K, x1 = 0.8006 | 962.01 | 22.97
303.15 K, x1 = 0.8992 | 957.12 | 22.19
303.15 K, x1 = 1 | 952.52 | 20.31
313.15 K, x1 = 0.05 | 992.68 | 1.431
313.15 K, x1 = 0.07 | 993.09 | 1.785
313.15 K, x1 = 0.0986 | 994.25 | 2.359
313.15 K, x1 = 0.1993 | 993.72 | 5.102
313.15 K, x1 = 0.3003 | 988.29 | 7.551
313.15 K, x1 = 0.3955 | 981.19 | 9.95
313.15 K, x1 = 0.4929 | 973.92 | 11.79
313.15 K, x1 = 0.5995 | 966.3 | 12.85
313.15 K, x1 = 0.7002 | 959.83 | 13.14
313.15 K, x1 = 0.8006 | 954.01 | 13.56
313.15 K, x1 = 0.8992 | 949.12 | 12.83
313.15 K, x1 = 1 | 944.42 | 12.51
323.15 K, x1 = 0.05 | 987.66 | 1.136
323.15 K, x1 = 0.07 | 987.41 | 1.393
323.15 K, x1 = 0.0986 | 988.2 | 1.561
323.15 K, x1 = 0.1993 | 986.18 | 3.582
323.15 K, x1 = 0.3003 | 980.32 | 5.59
323.15 K, x1 = 0.3955 | 973.13 | 6.649
323.15 K, x1 = 0.4929 | 965.84 | 7.64
323.15 K, x1 = 0.5995 | 958.38 | 7.994
323.15 K, x1 = 0.7002 | 951.77 | 8.473
323.15 K, x1 = 0.8006 | 945.87 | 8.748
323.15 K, x1 = 0.8992 | 940.96 | 8.041
323.15 K, x1 = 1 | 936.19 | 7.543
333.15 K, x1 = 0.05 | 982.03 | 0.929
333.15 K, x1 = 0.07 | 981.49 | 1.118
333.15 K, x1 = 0.0986 | 981.57 | 1.222
333.15 K, x1 = 0.1993 | 978.5 | 2.627
333.15 K, x1 = 0.3003 | 972.15 | 3.944
333.15 K, x1 = 0.3955 | 964.88 | 4.988
333.15 K, x1 = 0.4929 | 957.68 | 5.701
333.15 K, x1 = 0.5995 | 950.15 | 6.163
333.15 K, x1 = 0.7002 | 943.53 | 5.753
333.15 K, x1 = 0.8006 | 937.62 | 6.023
333.15 K, x1 = 0.8992 | 932.66 | 5.483
333.15 K, x1 = 1 | 927.84 | 5.22
343.15 K, x1 = 0.05 | 975.62 | 0.775
343.15 K, x1 = 0.07 | 974.99 | 0.922
343.15 K, x1 = 0.0986 | 973.44 | 0.993
343.15 K, x1 = 0.1993 | 970.55 | 2.088
343.15 K, x1 = 0.3003 | 963.77 | 2.904
343.15 K, x1 = 0.3955 | 956.45 | 3.619
343.15 K, x1 = 0.4929 | 949.25 | 4.075
343.15 K, x1 = 0.5995 | 941.71 | 4.371
343.15 K, x1 = 0.7002 | 935.09 | 4.565
343.15 K, x1 = 0.8006 | 929.19 | 4.467
343.15 K, x1 = 0.8992 | 924.2 | 3.927
343.15 K, x1 = 1 | 919.37 | 3.77
